Data reported in ChEMBL document CHEMBL1157513, “Enhanced anti-influenza A virus activity of (-)-epigallocatechin-3-O-gallate fatty acid monoester derivatives: effect of alkyl chain length” (Bioorg Med Chem Lett, 2008).

Legend:
Influenza A virus [1] = test: Antiviral activity against Influenza (A/PR8/34(H1N1)); assay type: functional, organism-based; settings: A/Puerto Rico/8/1934(H1N1)
Influenza A virus [2] = test: Antiviral activity against Influenza A/PR8/34(H1N1)) in dog MDCK cells; assay type: functional, organism-based; settings: A/Puerto Rico/8/1934(H1N1)
[3] = Selectivity, ratio of CC50 for dog MDCK cells to EC50 for Influenza (A/PR8/34(H1N1))
[4] = Selectivity, ratio of CC50 for dog MDCK cells to EC50 for Influenza (A/PR8/34(H1N1)) in MDCK cells
[5] = Cytotoxicity against MDCK cells by MTT assay; assay type: cell-based, Canis lupus familiaris; settings: dog

SMILES | EC50 (Influenza A virus [1]) [µM] | EC50 (Influenza A virus [2]) [µM] | Ratio CC50/EC50 [3] | Ratio CC50/EC50 [4] | CC50 [5] [µM]
CC(=O)Oc1cc(OC(C)=O)c2c(c1)O[C@H](c1cc(OC(C)=O)c(OC(C)=O)c(OC(C)=O)c1)[C@H](OC(=O)c1cc(OC(C)=O)c(OC(C)=O)c(OC(C)=O)c1)C2 | 8.49 | 77 | – | – | –
O=C(O[C@@H]1Cc2c(O)cc(O)cc2O[C@@H]1c1cc(O)c(O)c(O)c1)c1cc(O)c(O)c(O)c1 [EPIGALOCATECHIN GALLATE] | 0.391 | 94.6 | 703 | 2.91 | 275
